# Experimental data: ChEMBL document CHEMBL5550173, “Design, synthesis and biological evaluation of indoline-maleimide conjugates as potential antitumor agents for the treatment of colorectal cancer” (Bioorg Med Chem, 2024)
# Active and inactive are the calls of the source. No cut-off for these calls is given here.
# Experiments:
# HT-29 [1] = assay: Cytotoxicity against human HT-29 cells incubated for 72 hrs by MTS assay; format: functional, cell-based; settings: HT-29, 72 h
# HCT-116 [2] = assay: Induction of apoptosis in human HCT-116 cells assessed as early apoptotic cells at 5 uM incubated for 48 hrs by Annexin V-PE and propidium iodide staining based flow cytometry analysis (reference value: 0.4%); format: functional
# HCT-116 [3] = assay: Effect on cyclin D1 expression in human HCT-116 cells at 2.5 to 10 uM incubated for 48 hrs by Western blotting analysis; format: functional, cell-based; settings: dose 2.5-10 µM
# HCT-116 [4] = assay: Induction of apoptosis in human HCT-116 cells assessed as upregulation of cleaved caspase-7 expression incubated for 48 hrs by Western blotting analysis; format: functional, cell-based; settings: dose 2.5-10 µM
# HCT-116 [5] = assay: Induction of apoptosis in human HCT-116 cells assessed as late apoptotic cells at 10 uM incubated for 48 hrs by Annexin V-PE and propidium iodide staining based flow cytometry analysis (reference value: 0.5%); format: functional
# HCT-116 [6] = assay: Antitumor activity against human HCT-116 cells xenografted in BALB/c mouse assessed as reduction in tumor weight at 5 to 10 mg/kg, ip administered every 2 days; format: functional, organism-based; settings: dose 5-10 mg/kg
# HCT-116 [7] = assay: Effect on GSK-3beta level in human HCT-116 cells at 2.5 to 10 uM incubated for 48 hrs by Western blotting analysis; format: functional, cell-based; settings: dose 2.5-10 µM
# RKO [8] = assay: Effect on CDK2 expression in human RKO cells at 2.5 to 10 uM incubated for 48 hrs by Western blotting analysis; format: functional, cell-based; settings: dose 2.5-10 µM
# [9] = Acute toxicity in BALB/c mouse assessed as appearance of abnormal behavior at 50 to 100 mg/kg, ip measured every 2 days; format: organism-based; settings: in vivo, 48 h, dose 50-100 mg/kg
# HCT-116 [10] = assay: Induction of cell cycle arrest in human HCT-116 cells assessed as upregulation of p21 expression at 2.5 to 10 uM incubated for 48 hrs by Western blotting analysis; format: functional, cell-based; settings: dose 2.5-10 µM
# HCT-116 [11] = assay: Cytotoxicity against human HCT-116 cells incubated for 72 hrs by MTS assay; format: functional, cell-based; settings: HCT-116, 72 h
# HCT-116 [12] = assay: Inhibition of colony formation in human HCT-116 cells incubated for 10 days with every 3 days of media replacement by crystal violet staining based assay; format: functional, cell-based; settings: dose 1-4 µM, time 10.0 day
# HCT-116 [13] = assay: Cytotoxicity against human HCT-116 cells at 5 uM incubated for 72 hrs by MTS assay; format: functional
# RKO [14] = assay: Cytotoxicity against human RKO cells at 5 uM incubated for 72 hrs by MTS assay; format: functional
# RKO [15] = assay: Induction of apoptosis in human RKO cells assessed as viable cells at 2.5 uM incubated for 48 hrs by Annexin V-PE and propidium iodide staining based flow cytometry analysis (reference value: 99.2%); format: functional; settings: read-out: Activity
# [16] = target: Serine/threonine-protein kinase AKT (Homo sapiens) (UniProt P31751+Q9Y243+P31749); assay: Inhibition of AKT phosphorylation in human HCT-116 cells by incubated for 48 hrs Western blotting analysis; format: cell-based; settings: dose 2.5-10 µM
# HT-29 [17] = assay: Cytotoxicity against human HT-29 cells at 5 uM incubated for 72 hrs by MTS assay; format: functional
# HCT-116 [18] = assay: Antitumor activity against human HCT-116 cells xenografted in BALB/c mouse assessed as tumor growth suppression at 5 to 10 mg/kg, ip measured every 2 days; format: functional, organism-based; settings: dose 5-10 mg/kg
# HCT-116 [19] = assay: Effect on AKT level in human HCT-116 cells at 2.5 to 10 uM incubated for 48 hrs by Western blotting analysis; format: functional, cell-based; settings: dose 2.5-10 µM
# [20] = Acute toxicity in BALB/c mouse assessed as kidney lesion at 50 to 100 mg/kg, ip measured every 2 days by H and E staining based assay; format: organism-based; settings: in vivo, 48 h, dose 50-100 mg/kg
# HCT-116 [21] = assay: Induction of apoptosis in human HCT-116 cells assessed as early apoptotic cells at 10 uM incubated for 48 hrs by Annexin V-PE and propidium iodide staining based flow cytometry analysis (reference value: 0.4%); format: functional
# RKO [22] = assay: Induction of cell cycle arrest in human RKO cells assessed as downregulation of CDK6 expression at 2.5 to 10 uM incubated for 48 hrs by Western blotting analysis; format: functional, cell-based; settings: dose 2.5-10 µM
# [23] = Acute toxicity in BALB/c mouse assessed as spleen lesion at 50 to 100 mg/kg, ip measured every 2 days by H and E staining based assay; format: organism-based; settings: in vivo, 48 h, dose 50-100 mg/kg
# HCT-116 [24] = assay: Induction of apoptosis in human HCT-116 cells assessed as necrotic cells at 5 uM incubated for 48 hrs by Annexin V-PE and propidium iodide staining based flow cytometry analysis (reference value: 1.3%); format: functional
# HCT-116 [25] = assay: Induction of cell cycle arrest in human HCT-116 cells assessed as downregulation of CDK6 expression at 2.5 to 10 uM incubated for 48 hrs by Western blotting analysis; format: functional, cell-based; settings: dose 2.5-10 µM
# RKO [26] = assay: Induction of apoptosis in human RKO cells assessed as late apoptotic cells at 5 uM incubated for 48 hrs by Annexin V-PE and propidium iodide staining based flow cytometry analysis (reference value: 0.3%); format: functional
# RKO [27] = assay: Induction of apoptosis in human RKO cells assessed as viable cells at 5 uM incubated for 48 hrs by Annexin V-PE and propidium iodide staining based flow cytometry analysis (reference value: 99.2%); format: functional; settings: read-out: Activity
# [28] = Acute toxicity in BALB/c mouse assessed as lung lesion at 50 to 100 mg/kg, ip measured every 2 days by H and E staining based assay; format: organism-based; settings: in vivo, 48 h, dose 50-100 mg/kg
# HCT-116 [29] = assay: Induction of cell cycle arrest in human HCT-116 cells assessed as decrease in S phase cells incubated for 48 hrs by propidium iodide staining based flow cytometry analysis; format: functional; settings: dose 2.5-10 µM
# HCT-116 [30] = assay: Induction of apoptosis in human HCT-116 cells assessed as viable cells at 10 uM incubated for 48 hrs by Annexin V-PE and propidium iodide staining based flow cytometry analysis (reference value: 97.8%); format: functional; settings: read-out: Activity
# RKO [31] = assay: Inhibition of colony formation in human RKO cells incubated about 10 days with every 3 days of media replacement by crystal violet staining based assay; format: functional, cell-based; settings: dose 1-4 µM, time 10.0 day
# RKO [32] = assay: Inhibition of cell migration in human RKO cells at 2.5 to 10 uM measured upto 48 hrs by scratch wound healing assay; format: functional, cell-based; settings: dose 2.5-10 µM
# RKO [33] = assay: Induction of apoptosis in human RKO cells assessed as early apoptotic cells at 5 uM incubated for 48 hrs by Annexin V-PE and propidium iodide staining based flow cytometry analysis (reference value: 0.2%); format: functional
# HCT-116 [34] = assay: Induction of apoptosis in human HCT-116 cells assessed as late apoptotic cells at 2.5 uM incubated for 48 hrs by Annexin V-PE and propidium iodide staining based flow cytometry analysis (reference value: 0.5%); format: functional
# HCT-116 [35] = assay: Induction of cell cycle arrest in human HCT-116 cells assessed as downregulation of CDK4 expression at 2.5 to 10 uM incubated for 48 hrs by Western blotting analysis; format: functional, cell-based; settings: dose 2.5-10 µM
# HCT-116 [36] = assay: Induction of apoptosis in human HCT-116 cells assessed as necrotic cells at 10 uM incubated for 48 hrs by Annexin V-PE and propidium iodide staining based flow cytometry analysis (reference value: 1.3%); format: functional
# HCT-116 [37] = assay: Induction of apoptosis in human HCT-116 cells assessed as late apoptotic cells at 5 uM incubated for 48 hrs by Annexin V-PE and propidium iodide staining based flow cytometry analysis (reference value: 0.5%); format: functional
# HCT-116 [38] = assay: Induction of apoptosis in human HCT-116 cells assessed as viable cells at 5 uM incubated for 48 hrs by Annexin V-PE and propidium iodide staining based flow cytometry analysis (reference value: 97.8%); format: functional; settings: read-out: Activity
# Sequence of Serine/threonine-protein kinase AKT (Homo sapiens) (P31749 whole entry, looked up): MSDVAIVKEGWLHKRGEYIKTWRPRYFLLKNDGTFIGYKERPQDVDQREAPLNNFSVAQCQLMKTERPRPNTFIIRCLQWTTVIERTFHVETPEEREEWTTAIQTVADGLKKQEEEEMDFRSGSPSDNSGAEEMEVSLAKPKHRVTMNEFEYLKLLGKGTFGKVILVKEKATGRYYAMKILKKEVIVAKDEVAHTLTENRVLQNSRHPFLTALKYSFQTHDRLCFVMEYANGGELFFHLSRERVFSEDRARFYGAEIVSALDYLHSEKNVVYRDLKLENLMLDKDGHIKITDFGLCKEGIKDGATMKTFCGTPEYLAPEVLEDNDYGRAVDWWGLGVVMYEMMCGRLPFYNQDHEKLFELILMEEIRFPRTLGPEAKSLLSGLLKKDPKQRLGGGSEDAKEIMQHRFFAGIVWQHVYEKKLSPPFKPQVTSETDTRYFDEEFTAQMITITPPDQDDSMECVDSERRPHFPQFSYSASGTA
# Sequence of Serine/threonine-protein kinase AKT (Homo sapiens) (P31751 whole entry, looked up): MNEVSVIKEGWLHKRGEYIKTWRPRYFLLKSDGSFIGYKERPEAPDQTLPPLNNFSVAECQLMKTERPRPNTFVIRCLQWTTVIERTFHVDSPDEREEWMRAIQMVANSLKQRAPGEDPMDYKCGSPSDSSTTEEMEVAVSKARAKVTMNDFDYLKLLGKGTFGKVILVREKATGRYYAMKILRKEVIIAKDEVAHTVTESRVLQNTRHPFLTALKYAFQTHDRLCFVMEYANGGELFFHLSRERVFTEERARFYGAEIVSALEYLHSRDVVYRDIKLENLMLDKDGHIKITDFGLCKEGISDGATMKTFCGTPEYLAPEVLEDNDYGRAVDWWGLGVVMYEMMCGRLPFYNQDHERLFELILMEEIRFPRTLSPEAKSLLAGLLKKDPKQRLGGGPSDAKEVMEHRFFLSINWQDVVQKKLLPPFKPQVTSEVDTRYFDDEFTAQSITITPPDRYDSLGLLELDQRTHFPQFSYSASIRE
# Sequence of Serine/threonine-protein kinase AKT (Homo sapiens) (Q9Y243 whole entry, looked up): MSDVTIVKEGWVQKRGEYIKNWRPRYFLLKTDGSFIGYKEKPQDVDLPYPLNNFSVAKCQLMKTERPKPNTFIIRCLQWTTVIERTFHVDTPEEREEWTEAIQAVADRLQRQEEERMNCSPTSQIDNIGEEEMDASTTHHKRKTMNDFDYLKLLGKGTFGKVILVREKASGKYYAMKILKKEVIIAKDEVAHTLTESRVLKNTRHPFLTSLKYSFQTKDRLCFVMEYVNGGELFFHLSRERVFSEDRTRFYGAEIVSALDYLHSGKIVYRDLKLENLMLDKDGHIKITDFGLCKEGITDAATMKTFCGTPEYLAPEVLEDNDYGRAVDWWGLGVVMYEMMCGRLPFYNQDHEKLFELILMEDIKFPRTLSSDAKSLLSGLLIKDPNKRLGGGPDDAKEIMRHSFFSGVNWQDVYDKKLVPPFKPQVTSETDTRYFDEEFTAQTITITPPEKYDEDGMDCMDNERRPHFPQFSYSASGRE
compound,measurement,setting,value
C=C(C)C(=O)N1CCc2cccc(C3=CC(=O)N(C)C3=O)c21,IC50,HT-29 [1],1730 nM
same,Activity,HCT-116 [2],1.5%
same,Activity,HCT-116 [3],inactive
same,Activity,HCT-116 [4],Dose-Dependent Effect
same,Activity,HCT-116 [5],4.6%
same,Activity,HCT-116 [6],Active
same,Activity,HCT-116 [7],inactive
same,Activity,RKO [8],inactive
same,Activity,[9],Non-Toxic
same,Activity,HCT-116 [10],Active
same,IC50,HCT-116 [11],1570 nM
same,inhibition,HCT-116 [12],Dose-Dependent Effect
same,Activity,HCT-116 [13],98.06%
same,Activity,RKO [14],100.1%
same,viability at 2.5 µM,RKO [15],99%
same,inhibition,[16],Dose-Dependent Effect
same,Activity,HT-29 [17],99.28%
same,Activity,HCT-116 [18],Active
same,Activity,HCT-116 [19],inactive
same,Activity,[20],Non-Toxic
same,Activity,HCT-116 [21],5%
same,Activity,RKO [22],Active
same,Activity,[23],Non-Toxic
same,Activity,HCT-116 [24],3.2%
same,Activity,HCT-116 [25],Active
same,Activity,RKO [26],0.4%
same,viability at 5 µM,RKO [27],98%
same,Activity,[28],Non-Toxic
same,Activity,HCT-116 [29],Dose-Dependent Effect
same,viability at 10 µM,HCT-116 [30],83.1%
same,inhibition,RKO [31],Dose-Dependent Effect
same,inhibition,RKO [32],Active
same,Activity,RKO [33],1.5%
same,Activity,HCT-116 [34],1%
same,Activity,HCT-116 [35],Active
same,Activity,HCT-116 [36],7.2%
same,Activity,HCT-116 [37],1.7%
same,viability at 5 µM,HCT-116 [38],93.6%
